Test results as given in PubChem BioAssay AID328 (DTP/NCI, 2004).
Where “and” joins values, the source holds several entries; their conditions need not be identical. Equal entries are not always repeated. Toxic doses and inconclusive results are not listed. Rule for the calls: active = survival T/C of 150% or more; inactive = T/C below 125% in these data.

Test system: BDF1 mice, P388 leukemia ip, median survival T/C
Test: NCI In Vivo Anticancer Drug Screen. Data for tumor model P388 Leukemia (intraperitoneal) in B6D2F1 (BDF1) mice
Conditions: endpoint: median survival time, higher = longer survival
How it was run: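 Compound-treated tumour-bearing mice were compared with vehicle-treated controls. Survival was recorded, and the value is the treated-group measurement divided by the control-group measurement (T/C).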

[1] = dose: 100.0 mg/kg/injection, schedule: Q01DX009 (ip), vehicle: Klucel (hydroxypropylcellulose) (HPC)
[2] = dose: 200.0 mg/kg/injection, schedule: Q01DX009 (ip), vehicle: Klucel (hydroxypropylcellulose) (HPC)
[3] = dose: 100.0 mg/kg/injection, schedule: Q04DX003 (ip), vehicle: saline sonified
[4] = dose: 200.0 mg/kg/injection, schedule: Q04DX003 (ip), vehicle: saline sonified
[5] = dose: 100.0 mg/kg/injection, schedule: Q04DX003 (ip), vehicle: Klucel (hydroxypropylcellulose) (HPC)
[6] = dose: 200.0 mg/kg/injection, schedule: Q04DX003 (ip), vehicle: Klucel (hydroxypropylcellulose) (HPC)
[7] = dose: 400.0 mg/kg/injection, schedule: Q01DX009 (ip), vehicle: Klucel (hydroxypropylcellulose) (HPC)
[8] = dose: 400.0 mg/kg/injection, schedule: Q04DX003 (ip), vehicle: Klucel (hydroxypropylcellulose) (HPC)
[9] = dose: 50.0 mg/kg/injection, schedule: Q01DX009 (ip), vehicle: saline with Tween-80
[10] = dose: 100.0 mg/kg/injection, schedule: Q01DX009 (ip), vehicle: saline with Tween-80
[11] = dose: 200.0 mg/kg/injection, schedule: Q01DX009 (ip), vehicle: saline with Tween-80
[12] = dose: 200.0 mg/kg/injection, schedule: Q04DX003 (ip), vehicle: saline with Tween-80
[13] = dose: 100.0 mg/kg/injection, schedule: Q04DX003 (ip), vehicle: saline

Measured: T/C

COc1cccc2c1C(=O)c1c(O)c3c(c(O)c1C2=O)C[C@@](O)(C(C)=O)C[C@@H]3OC(=O)CCN
inactive: dose: 1.56 mg/kg/injection, schedule: Q01DX009 (ip), vehicle: water 100 % of control and 123 % of control | dose: 3.12 mg/kg/injection, schedule: Q01DX009 (ip), vehicle: water 93 % of control
active: dose: 6.25 mg/kg/injection, schedule: Q01DX009 (ip), vehicle: water 169 % of control

Cc1ccc(NC(=S)NNC(=S)NNc2ccccc2)cc1C
inactive: [1] 115 % of control | [2] 120 % of control

CC1(C)NC(=O)N(CN2CCN(CN3C(=O)NC(C)(C)C3=O)CC2)C1=O
inactive: [3] 107 % of control | [4] 115 % of control | dose: 400.0 mg/kg/injection, schedule: Q04DX003 (ip), vehicle: saline sonified 115 % of control

COC1=CC(=O)c2c(O)cc(OC)c(O)c2C1=O
inactive: dose: 2.5 mg/kg/injection, schedule: Q01DX009 (ip), vehicle: saline with Tween-80 104 % of control | dose: 5.0 mg/kg/injection, schedule: Q01DX009 (ip), vehicle: saline with Tween-80 113 % of control

CCOC1C=CC(OC(C)=O)C(COC(C)=O)O1 (stereo not drawn)
inactive: [1] 90 % of control | [5] 100 % of control | [2] 86 % of control | [6] 104 % of control | [7] 100 % of control | [8] 100 % of control

NC(=S)N/N=C/C=C/c1ccccc1
inactive: dose: 100.0 mg/kg/injection, schedule: Q04DX002 (ip), vehicle: Klucel (hydroxypropylcellulose) (HPC) 96 % of control

O=[N+]([O-])c1ccc(OCCNS(=O)(=O)c2cccc(S(=O)(=O)F)c2)c(Cl)c1
inactive: dose: 12.5 mg/kg/injection, schedule: Q01DX009 (ip), vehicle: saline with Tween-80 110 % of control | [9] 110 % of control | [10] 94 % of control | dose: 100.0 mg/kg/injection, schedule: Q04DX003 (ip), vehicle: saline with Tween-80 99 % of control | [11] 105 % of control | [12] 99 % of control | dose: 400.0 mg/kg/injection, schedule: Q01DX009 (ip), vehicle: saline with Tween-80 88 % of control | dose: 400.0 mg/kg/injection, schedule: Q04DX003 (ip), vehicle: saline with Tween-80 108 % of control

Nc1nc2ccccc2nc1N
inactive: dose: 25.0 mg/kg/injection, schedule: Q01DX009 (ip), vehicle: saline 100 % of control | dose: 25.0 mg/kg/injection, schedule: Q04DX003 (ip), vehicle: saline 100 % of control | dose: 50.0 mg/kg/injection, schedule: Q01DX009 (ip), vehicle: saline 100 % of control | dose: 50.0 mg/kg/injection, schedule: Q04DX003 (ip), vehicle: saline 95 % of control | dose: 100.0 mg/kg/injection, schedule: Q01DX009 (ip), vehicle: saline 90 % of control | [13] 91 % of control

C(=N\c1ncn[nH]1)/c1ccco1
inactive: [9] 111 % of control | [10] 99 % of control | [11] 102 % of control

COc1cc([C@@H]2c3cc4c(cc3[C@H](OC(C)=O)[C@H]3COC(=O)[C@@H]23)OCO4)cc(OC)c1OC
inactive: dose: 25.0 mg/kg/injection, schedule: Q01DX010 (ip), vehicle: carboxymethylcellulose (CMC) 123 % of control | dose: 50.0 mg/kg/injection, schedule: Q01DX010 (ip), vehicle: carboxymethylcellulose (CMC) 95 % of control | dose: 50.0 mg/kg/injection, schedule: Q04DX003 (ip), vehicle: saline sonified 100 % of control | dose: 66.0 mg/kg/injection, schedule: Q04DX003 (ip), vehicle: saline sonified 88 % of control | dose: 88.0 mg/kg/injection, schedule: Q04DX003 (ip), vehicle: saline with Tween-80 113 % of control | [3] 100 % of control | dose: 150.0 mg/kg/injection, schedule: Q04DX003 (ip), vehicle: saline sonified 100 % of control
active: [9] 172 % of control | dose: 132.0 mg/kg/injection, schedule: Q04DX003 (ip), vehicle: saline with Tween-80 150 % of control | [4] 170 % of control | [12] 160 % of control

O=C(COCc1ccccc1)OCc1ccccc1
inactive: [13] 109 % of control | dose: 200.0 mg/kg/injection, schedule: Q04DX003 (ip), vehicle: saline 104 % of control | dose: 400.0 mg/kg/injection, schedule: Q04DX003 (ip), vehicle: saline 113 % of control

CCCCCCCCCCCCCCCCn1/c(=N/N=C/c2ccccc2S(=O)(=O)O)sc2ccccc21
inactive: [5] 104 % of control | [2] 95 % of control | [6] 118 % of control | [7] 95 % of control | [8] 95 % of control
